# Reference: US4230725A, “Antiviral agent” (Sumitomo Chemical Company, Limited, priority 1977, dated 1980)
# Counter-ions that a name gives are not always drawn. Like-named read-outs stand apart in the source and are kept apart here.
# What was measured:
# Influenza Ao PR/8 = type: in vivo, ddY male mice; settings: 7 days after infection, dose 0: 4.8
# [1] = system: herpes simplex virus type I (HF strain); test: Effect on the growth of herpes virus in tissue cultures (tube dilution method); type: cell-based; settings: for MIC: read-out: MIC (minimum virus growth inhibitory concentration); for MIC (minimum virus growth inhibitory concentration): host cells KB
# Method: The antiviral activity was examined by the tube dilution method. HeLa cells and KB cells for the assay were cultured in YLE medium and Eagle MEM medium in vitro, respectively, containing 10% fetal calf serum. After the cells were grown in a monolayer form, the medium was exchanged to the fresh medium supplemented with 2% fetal calf serum, and then about 1000 TCD50 of herpes simplex virus type I (HF strain) and the test compound were added. After 72 hours' incubation at 37° C., the cytotoxicity of the compound and the virus induced cytopathic effect (CPE) were observed microscopically.
# The antiviral activity was expressed in minimum virus growth inhibitory concentration (MIC) and minimum cytotoxic concentration (MCC) in Table 1.
# in vitro [2] = settings: human, hela cells
# in vitro [3] = settings: human, kb cells
# [4] = system: herpes and influenza viruses; test: Antiviral activity, overall statement; settings: against herpes and influenza viruses; in vivo as well as in vitro
# Acute toxicity in mice = settings: mouse, in vivo
# eyes of a rabbit = test: Herpes keratitis in rabbit: toxicity control eyes (scratched, not infected); type: in vivo; settings: 0.5% eye lotion
# Method: After 2% cocaine was applied to the eyes of a rabbit anesthetized with barbital, the corneal epithelium of each eye was scratched and infected with herpes simplex virus type I (HF strain).
# The treatment with the compound A was carried out as follows: Twelve hours after virus infection, 0.5% eye lotion of the compound A in 1.4% polyvinyl alcohol was applied every two hours, five times a day during seven days.
# For seven days after infection, the lesions on the conjunctiva, cornea and iris were daily observed visually prior to the first treatment and recorded according to the scoring method.
# Separately from this, eyes of a rabbit were scratched but not infected with virus, one of the eyes was similarly treated with the compound A and the other eye was treated with 1.4% polyvinyl alcohol as toxicity control.
# [5] = system: herpes simplex virus type I (HF strain); test: Therapeutic effect on herpes encephalitis in mice; type: in vivo; settings: for Survival ratio: 21st day, untreated 0/10; for Mean survival term: 21 days
# Method: Mice were anesthetized with ether and were infected intracerebrally […] with about 30 LD50 of herpes simplex virus type I (HF strain). The infected mice were administered with the compound A according to various therapeutic schedules. The therapeutic effects of the compound A were examined on the basis of the survival ratios at the 3rd week after virus infection and the mean survival days.
# ^a Dose of administration
# ^b Administration schedule of each route was as follows:
# i.c. (intracerebrally): Single administration simultaneously with virus
# p.o. (per os): Two administrations per day during 8.5 days from 4 hours
# s.c. (subcutaneously): Two administrations per day during 8.5 days from 4
# hours after virus infection.
# i.v. (intravenously): Single administration 3 hours after virus infection
# ^c The animals were examined for 21 days after infection, and mean
# survival term was determined.
# ^d Survival ratio on the 21st day after virus infection.
# [6] = about 1000 TCD50, 72 hours at 37° C.
compound,measurement,setting,value
"NC12CC3CC(CC(C3)C1)C2 [Amantadine hydrochloride, reference compound]",Lung Lesion Score,"Influenza Ao PR/8; 10 mg/kg subcutaneous, *P < 0.05",4.3
same,Lung Lesion Score,"Influenza Ao PR/8; 25 mg/kg subcutaneous, *P < 0.05",4.1
same,Lung Lesion Score,"Influenza Ao PR/8; 50 mg/kg subcutaneous, *P < 0.05",4.0
same,MIC,[1]; 72 h,50 µg/mL
same,MIC (minimum virus growth inhibitory concentration),[1]; [6],50 µg/mL
same,MCC at 72 h,in vitro [2],> 50 µg/mL
same,MCC at 72 h,in vitro [3],> 50 µg/mL
"Cl.NC12CCCC(C1)C1CCC2C1 (stereo not drawn) [Compound A, 1-Amino-2,4-ethanobicyclo[3,3,1]nonane hydrochloride]",Lung Lesion Score,"Influenza Ao PR/8; 7.5 mg/kg subcutaneous, no asterisk",4.4
same,Lung Lesion Score,"Influenza Ao PR/8; 15 mg/kg subcutaneous, *P < 0.05",4.2
same,Lung Lesion Score,"Influenza Ao PR/8; 30 mg/kg subcutaneous, *P < 0.05",4.0
same,MIC,"[1]; host cells HeLa, about 1000 TCD50, 72 hours at 37° C.",2.5 µg/mL
same,MIC (minimum virus growth inhibitory concentration),[1]; [6],2.5 µg/mL
same,antiviral activity,[4],very strong antiviral activity
same,MCC at 72 h,in vitro [2],100 µg/mL
same,LD50,Acute toxicity in mice; iv,58 mg/kg
same,LD50,Acute toxicity in mice; po,320 mg/kg
same,effect on cure period as compared with the toxicity control,"eyes of a rabbit; five times a day during seven days, scratched uninfected rabbit eyes",did not prolong the cure period
same,toxicity of the eye lotion,eyes of a rabbit; rabbit eyes,no toxicity
same,Survival ratio,"[5]; 5 mg/kg i.c., single administration simultaneously with virus infection",6/10
same,Mean survival term,"[5]; 5 mg/kg i.c., single administration simultaneously with virus infection, untreated 5.7",8.3 days
same,Survival ratio,"[5]; 10 mg/kg i.v., single administration 3 hours after infection",4/10
same,Mean survival term,"[5]; 10 mg/kg i.v., single administration 3 hours after infection, untreated 5.8",8.1 days
same,Survival ratio,"[5]; 100 mg/kg p.o., two per day during 8.5 days from 4 hours after infection",4/10
same,Mean survival term,"[5]; 100 mg/kg p.o., two per day during 8.5 days from 4 hours after infection, untreated 5.5",7.7 days
same,Survival ratio,"[5]; 100 mg/kg s.c., two per day during 8.5 days from 4 hours after infection",5/10
same,Mean survival term,"[5]; 100 mg/kg s.c., two per day during 8.5 days from 4 hours after infection, untreated 5.7",7.6 days
same,MCC at 72 h,in vitro [3],100 µg/mL
